Measured values from patent US20230172882A1, “Method For Treating Pancreatic Cancer” (Lantern Pharma Inc., priority 2020, published 2023).

Experiments:
[1] = test system: pancreatic cancer cell lines; test: Cell viability, first study of 4 pancreatic cancer cell lines, 72 h; type: cell-based
Procedure: (§1) Individual cell lines were treated with LP-184 for 72 hours and cell viability was assayed. IC50 values were generated from dose response curves plotted in GraphPad Prism.

[2] = test system: pancreatic cancer cell lines; test: Cell viability, second study of pancreatic cancer cell lines, 72 h; type: cell-based; settings: treated 72 hours, range across cell lines (FIG. 2), read-out: cytotoxicity in terms of IC50 value
Procedure: as §1

[3] = test system: Capan-1 cell line derived xenograft tumors; test: Capan-1 cell line derived xenograft tumors in SCID mice; type: in vivo; settings: 3 mg/kg intraperitoneal, thrice weekly for 3 weeks; end of study period, 60 days
Procedure: All animal studies were carried out in compliance with National Institutes of Health Guidelines for animals. The doses were selected to be tolerated in xenografts. Capan-1 cell line derived xenograft tumors were implanted in SCID mice and treated either with (a) vehicle control of 95% saline/5% ethanol (N=3) or (b) 3 mg/kg LP-184 (N=5) administered by intraperitoneal injection over thrice weekly doses for 3 weeks. In other words, one group was treated with LP-184 and the other group was treated with the vehicle control.

## HydroxyUreaMethyl Acylfulvene [LP-184]
[1]; FIG. 1 and FIG. 2, 72 hours
  potency in pancreatic cancer cell lines: nanomolar potency
[1]; first study of 4 pancreatic cancer cell lines, treated 72 hours, range across cell lines (FIG. 1), read-out: cytotoxicity in terms of IC50 values
  IC50: 110 to 310 nM
[2]
  IC50: 130 to 180 nM
[3]
  tumor volume growth / tumor regression: Complete tumor regression
